What follows are molecules tested against T1, dihydrolipoamide acyltransferase (DlaT) (Mycobacterium tuberculosis, UniProt P9WIS7) (assay: DlaT inhibition (Dlat IC50); DTNB peroxidase assay with Lpd, DlaT and AhpD). Settings: Dlat IC50 category.
T1 sequence (P9WIS7 1-553): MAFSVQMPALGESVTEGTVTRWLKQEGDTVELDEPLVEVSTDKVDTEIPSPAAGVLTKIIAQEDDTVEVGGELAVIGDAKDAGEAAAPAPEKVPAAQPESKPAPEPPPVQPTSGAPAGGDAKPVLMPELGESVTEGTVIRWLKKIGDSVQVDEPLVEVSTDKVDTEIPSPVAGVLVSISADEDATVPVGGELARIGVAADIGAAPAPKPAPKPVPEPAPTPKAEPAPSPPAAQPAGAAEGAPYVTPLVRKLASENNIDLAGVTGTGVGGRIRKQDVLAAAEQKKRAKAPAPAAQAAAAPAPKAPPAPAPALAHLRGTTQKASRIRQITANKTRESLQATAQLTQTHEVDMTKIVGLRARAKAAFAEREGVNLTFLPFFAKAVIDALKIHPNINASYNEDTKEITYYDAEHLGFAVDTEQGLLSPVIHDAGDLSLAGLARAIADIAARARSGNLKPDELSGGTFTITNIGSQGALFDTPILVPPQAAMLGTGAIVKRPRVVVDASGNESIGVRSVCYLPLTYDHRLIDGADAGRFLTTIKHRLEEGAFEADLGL
Assay type: biochemical
In the case of `CSc1ccccc1-c1ccc(C=C2SC(=S)N(Nc3ccccc3C(=O)O)C2=O)o1` [Compound D30, 2-{5-[1-[5-(2-methylsulfanyl-phenyl)-furan-2-yl]-methylidene]-4-oxo-2-thioxo-thiazolidin-3-ylamino}-benzoic acid], the IC50 is reported as under 10 µM.
`CN(C)c1ccc(-c2ccc(C=C3SC(=S)N(Nc4ccccc4C(=O)O)C3=O)o2)cc1` [Compound D31, 2-{5-[5-(4-Dimethylamino-phenyl)-furan-2-ylmethylene]-4-oxo-2-thioxo-thiazolidin-3-ylamino}-benzoic acid] was tested, and the IC50 was 11 to 40 µM.
`O=C(O)c1ccccc1NN1C(=O)C(=Cc2ccc(-c3ccccc3Oc3ccccc3)o2)SC1=S` [Compound D33, 2-{4-oxo-5-[1-[5-(2-phenoxy-phenyl)-furan-2-yl]-methylidene]-2-thioxo-thiazolidin-3-ylamino}-benzoic acid] gave an IC50 of under 10 µM.
`Cc1ccccc1-c1ccc(C=C2SC(=S)N(Nc3ccccc3C(=O)O)C2=O)s1` [Compound D34, 2-{4-oxo-2-thioxo-5-[1-(5-o-tolyl-thiophen-2-yl)-methylidene]-thiazolidin-3-ylamino}-benzoic acid] gave an IC50 of under 10 µM.
In the case of `O=C(O)c1ccccc1NN1C(=O)C(=Cc2ccc(-c3ccccc3Cl)s2)SC1=S` [Compound D35, 2-{4-oxo-2-thioxo-5-[1-(5-2-chloro-thiophen-2-yl)-methylidene]-thiazolidin-3-ylamino}-benzoic acid], the IC50 is reported as under 10 µM.
In the case of `O=C(O)c1ccccc1NN1C(=O)C(=Cc2ccc(-c3ccccc3F)s2)SC1=S` [Compound D36, 2-{4-oxo-2-thioxo-5-[1-(5-2-fluoro-thiophen-2-yl)-methylidene]-thiazolidin-3-ylamino}-benzoic acid], the IC50 is reported as under 10 µM.
In the case of `O=C(O)c1ccc(NN2C(=O)C(=Cc3ccc(-c4cccc(C(F)(F)F)c4)o3)SC2=S)cc1` [Compound D37, 4-{4-oxo-2-thioxo-5-[5-(3-trifluoromethyl-phenyl)-furan-2-ylmethylene]-thiazolidin-3-ylamino}-benzoic acid], the IC50 is reported as under 10 µM.
In the case of `CCc1ccc(-c2ccc(C=C3SC(=S)N(Nc4ccccc4C(=O)O)C3=O)o2)cc1` [Compound D38, 2-{5-[1-[5-(4-ethyl-phenyl)-furan-2-yl]-methylidene]-4-oxo-2-thioxo-thiazolidin-3-ylamino}-benzoic acid], the IC50 is reported as under 10 µM.
For `O=C(O)c1ccccc1NN1C(=O)C(=Cc2ccc(-c3ccc(C(F)(F)F)cc3)o2)SC1=S` [Compound D39, 2-{4-oxo-2-thioxo-5-[1-[5-(4-trifluoromethyl-phenyl)-furan-2-yl]-methylidene]-thiazolidin-3-ylamino}-benzoic acid], the IC50 was under 10 µM.
Work on `O=C(O)c1ccccc1NN1C(=O)C(=Cc2ccc(-c3cccc(-c4ccccc4)c3)o2)SC1=S` [Compound D40, 2-{5-[1-(5-biphenyl-3-yl-furan-2-yl)-methylidene]-4-oxo-2-thioxo-thiazolidin-3-ylamino}-benzoic acid] yielded an IC50 of under 10 µM.
With `CC(=O)Nc1ccc(-c2ccc(C=C3SC(=S)N(Nc4ccccc4C(=O)O)C3=O)o2)cc1` [Compound D41, 2-{5-[5-(4-acetylamino-phenyl)-furan-2-ylmethylene]-4-oxo-2-thioxo-thiazolidin-3-ylamino}-benzoic acid] the IC50 was under 10 µM.
In the case of `CC(=O)c1ccc(-c2ccc(C=C3SC(=S)N(Nc4ccccc4C(=O)O)C3=O)o2)cc1` [Compound D42, 2-{5-[1-[5-(4-acetyl-phenyl)-furan-2-yl]-methylidene]-4-oxo-2-thioxo-thiazolidin-3-ylamino}-benzoic acid], the IC50 is reported as under 10 µM.
`O=C(O)c1ccccc1NN1C(=O)C(=Cc2ccc(-c3ccccc3F)o2)SC1=S` [Compound D43, 2-{5-[1-[5-(2-fluoro-phenyl)-furan-2-yl]-methylidene]-4-oxo-2-thioxo-thiazolidin-3-ylamino}-benzoic acid] was tested, and the IC50 was under 10 µM.
`O=C(O)c1ccccc1NN1C(=O)C(=Cc2ccc(-c3cccc(CO)c3)o2)SC1=S` [Compound D44, 2-{5-[1-[5-(3-hydroxymethyl-phenyl)-furan-2-yl]-methylidene]-4-oxo-2-thioxo-thiazolidin-3-ylamino}-benzoic acid] was tested, and the IC50 was under 10 µM.
For `O=C(O)c1ccccc1NN1C(=O)C(=Cc2ccc(-c3ccc(F)cc3)o2)SC1=S` [Compound D45, 2-{5-[1-[5-(4-fluoro-phenyl)-furan-2-yl]-methylidene]-4-oxo-2-thioxo-thiazolidin-3-ylamino}-benzoic acid], the IC50 was under 10 µM.
`O=C(O)c1ccccc1NN1C(=O)C(=Cc2ccc(-c3ccc(OCc4ccccc4)cc3)o2)SC1=S` [Compound D48, 2-{5-[1-[5-(4-benzyloxy-phenyl)-furan-2-yl]-methylidene]-4-oxo-2-thioxo-thiazolidin-3-ylamino}-benzoic acid] was tested, and the IC50 was 11 to 40 µM.
`CCCCOc1ccc(-c2ccc(C=C3SC(=S)N(Nc4ccccc4C(=O)O)C3=O)o2)cc1` [Compound D49, 2-{5-[1-[5-(4-butoxy-phenyl)-furan-2-yl]-methylidene]-4-oxo-2-thioxo-thiazolidin-3-ylamino}-benzoic acid] gave an IC50 of under 10 µM.
`CS(=O)(=O)c1ccc(-c2ccc(C=C3SC(=S)N(Nc4ccccc4C(=O)O)C3=O)o2)cc1` [Compound D50, 2-{5-[5-(4-methanesulfonyl-phenyl)-furan-2-ylmethylene]-4-oxo-2-thioxo-thiazolidin-3-ylamino}-benzoic acid] was tested, and the IC50 was under 10 µM.
In the case of `Cc1ccccc1-c1ccc(C=C2SC(=S)N(Nc3ccccc3C(=O)O)C2=O)o1` [Compound D51, 2-{4-oxo-2-thioxo-5-[1-(5-o-tolyl-furan-2-yl)-methylidene]-thiazolidin-3-ylamino}-benzoic acid], the IC50 is reported as under 10 µM.
`CSc1cccc(-c2ccc(C=C3SC(=S)N(Nc4ccccc4C(=O)O)C3=O)o2)c1` [Compound D52, 2-{5-[1-[5-(3-methylsulfanyl-phenyl)-furan-2-yl]-methylidene]-4-oxo-2-thioxo-thiazolidin-3-ylamino}-benzoic acid] showed an IC50 of under 10 µM.
Molecule `CSc1ccc(-c2ccc(C=C3SC(=S)N(Nc4ccccc4C(=O)O)C3=O)o2)cc1` [Compound D53, 2-{5-[1-[5-(4-methylsulfanyl-phenyl)-furan-2-yl]-methylidene]-4-oxo-2-thioxo-thiazolidin-3-ylamino}-benzoic acid] has an IC50 of 11 to 40 µM.
In the case of `CC(C)Oc1ccc(-c2ccc(C=C3SC(=S)N(Nc4ccccc4C(=O)O)C3=O)o2)cc1` [Compound D54, 2-{5-[5-(4-isopropoxy-phenyl)-furan-2-ylmethylene]-4-oxo-2-thioxo-thiazolidin-3-ylamino}-benzoic acid], the IC50 is reported as under 10 µM.
Molecule `Cc1ccc(-c2cccc(C=C3SC(=S)N(Nc4ccccc4C(=O)O)C3=O)c2)cc1` [Compound D55, 2-{5-[1-(4′-methyl-biphenyl-3-yl)-methylidene]-4-oxo-2-thioxo-thiazolidin-3-ylamino}-benzoic acid] has an IC50 of under 10 µM.
Molecule `Cc1ccc(-c2ccc(C=C3SC(=S)N(Nc4ccccc4C(=O)O)C3=O)cc2)cc1` [Compound D56, 2-{5-[1-(4′-methyl-biphenyl-4-yl)-methylidene]-4-oxo-2-thioxo-thiazolidin-3-ylamino}-benzoic acid] has an IC50 of 11 to 40 µM.
For `O=C(O)c1ccccc1NN1C(=O)C(=Cc2ccc(-c3ccccc3-c3ccccc3)o2)SC1=S` [Compound D57, 2-{5-[1-(5-biphenyl-2-yl-furan-2-yl)-methylidene]-4-oxo-2-thioxo-thiazolidin-3-ylamino}-benzoic acid], the IC50 was under 10 µM.

From US8338465B2, “Cyclic carboxylic acid rhodanine derivatives for the treatment and prevention of tuberculosis” (priority 2006, dated 2012)
